The results in this text go back to paper PMC10857906, “PROTAC-mediated NR4A1 degradation as a novel strategy for cancer immunotherapy” (The Journal of Experimental Medicine, 2024).

Data set [1] deals with Yumm1.7 tumors. Kind of data set: Yumm1.7 melanoma syngeneic tumor model. In kind it is in vivo, mouse. Conditions: Yumm1.7 (low immunogenicity), 1.8 mg/kg. The text has this:
7–9-wk-old C57BL/6J, B6.129S2-Ighm^tm1Cgn/J (002288), B6.129S2-Nr4a1^tm1Jmi/J (NR4A1^−/−, 006187), and NOD-SCID interleukin-2 receptor gamma null (NSG) mice were purchased from Jackson Laboratories. For all studies involving NR-V04 and celastrol, the compounds were formulated in 50% phosal PG, 45% miglyol 810N, and 5% polysorbate 80 and administered via i.p. injection.
(§1) For syngeneic tumor models, 5 × 10^5 cells MC38, Yumm1.7, and Yummer1.7, 1 × 10^5 cells of B16F10 were resuspended in PBS and implanted into 7–9-wk-old mice subcutaneously. For the tumor inhibition experiment, mice were treated with 1.8 mg/kg NR-V04 or 0.75 mg/kg celastrol by i.p. injection twice weekly. For the immune profile experiment, once tumors reached 0.5 cm in diameter, mice were treated with 1.8 mg/kg NR-V04 by i.p. injection twice weekly. For the toxicity experiment, male and female non-tumor-bearing mice were treated with 2 mg/kg NR-V04 for two doses in the first week and 5 mg/kg for another two doses in the second week. Blood samples were taken from the submandibular (facial) vein before each treatment and 42 days later for hematological analysis, and body weight was measured twice per week up to day 42. Mice were euthanized in accordance with the IACUC protocol once the largest tumors reached 2 cm in diameter, and tissues were collected for further analysis.

Data set [2] deals with T1, NR4A3 (Homo sapiens, UniProt Q92570).
T1 construct: endogenous in cells
Kind of data set: NR4A3 protein level after treatment (immunoblotting). In kind it is cell-based. The protocol:
(§2) Samples were lysed using radioimmunoprecipitation assay buffer (RIPA) lysis buffer (150 mM NaCl, 5 mM EDTA, 50 mM Tris pH 8.0, 0.5% sodium deoxycholate, 1% NP-40, 0.1% SDS) supplemented with 1 mM dithiothreitol and protease inhibitors. The lysates were separated by SDS-PAGE and analyzed using standard western blotting procedures ([Khan et al., 2019]). Antibodies: human NR4A1 (ab153914, 1:1,000; Abcam), mouse NR4A1 (14-5965-82, 1:1,000; Invitrogen), NR4A2 (AV38753, 1:1,000; Sigma-Aldrich), NR4A3 (TA804893, 1: 1,000; Thermo Fisher Scientific), VHL (68547, 1:1,000; Cell Signaling), β-actin (13E5, 1:5,000; Cell Signaling), β-tubulin (9F3, 1: 5,000; Cell Signaling), and GAPDH (D16H11, 1: 5,000; Cell Signaling) were employed for protein detection.
A general note: Immunoblotting shows a protein as a band on a membrane.

The target of data set [3] is T2, NR4A1 (Homo sapiens, UniProt P22736).
T2 construct: NR-V04 effectively promoted the degradation of NR4A1 in two human melanoma cell lines within 16 h; endogenous in cells; host or cells: CHL-1, A375, WM164, M229 human melanoma cells
Kind of data set: NR4A1 degradation in CHL-1 human melanoma cells (immunoblotting). In kind it is cell-based. Particulars: CHL-1 cells. The protocol:
(§3) Human melanoma cell lines: A375 and CHL-1 (gifts from Dr. D. Zhou, the University of Texas Health Science Center, San Antonio, TX, USA) were cultured in Dulbecco’s Modified Eagles’ Medium (DMEM, D5796; Sigma-Aldrich), WM164 and M229 (gifts from Dr. K.S.M. Smalley’s lab) were cultured in RPMI-1640 (R8758; Sigma-Aldrich). Mouse melanoma cell lines: B16F10 (CRL-6475, ATCC) was cultured in DMEM, SW1 and SM1 (gift from Dr. K.S.M. Smalley, Moffitt Cancer Center, Tampa, FL, USA) were cultured in RPMI. Human epithelial kidney cell lines: HEK293T (293T, CRL-3216; ATCC) and Vhl-KO-293T (gift from Dr. D. Zhou, the University of Texas Health Science Center, San Antonio, TX, USA) were cultured in DMEM. Mouse colon cancer cell lines: MC38 (ENH204-FP; Kerafast Inc.) was cultured in DMEM supplemented with 1 mM glutamine, […] non-essential amino acids (11140050; Thermo Fisher Scientific), 1 mM sodium pyruvate (11360070; Thermo Fisher Scientific), and 10 mM HEPES (15630080; Thermo Fisher Scientific). All cell culturing media were supplemented with 10% fetal bovine serum (FBS, F2442; Sigma-Aldrich), 100 U/ml penicillin, and 100 µg/ml streptomycin (P4333; Sigma-Aldrich).
as §2

The target in data set [4] is T3, VHL (Homo sapiens, UniProt P40337).
T3 construct: endogenous in cells; host or cells: CHL-1, A375, WM164, M229 human melanoma cells
Kind of data set: VHL protein level after treatment (immunoblotting). In kind it is cell-based. Particulars: human melanoma cell lines, 16 h. The protocol:
as §2

Data set [5] addresses T2, NR4A1. Kind of data set: NR4A1 degradation in WM164 and M229 human melanoma cells (immunoblotting). In kind it is cell-based. Conditions: 16 h. The protocol: as §3, with “All cell culturing media were supplemented with 10% fetal bovine serum (FBS, F2442; Sigma-Aldrich), 100 U/ml penicillin, and 100 µg/ml streptomycin (P4333; Sigma-Aldrich).” left out
Samples were lysed using radioimmunoprecipitation assay buffer (RIPA) lysis buffer (150 mM NaCl, 5 mM EDTA, 50 mM Tris pH 8.0, 0.5% sodium deoxycholate, 1% NP-40, 0.1% SDS) supplemented with 1 mM dithiothreitol and protease inhibitors. The lysates were separated by SDS-PAGE and analyzed using standard western blotting procedures ([Khan et al., 2019]). […]

A short description of data set [6]: Toxicity testing in non-tumor-bearing mice. In kind it is in vivo, C57BL/6J mice. Here is the method:
as §1
Mouse blood was prepared in microcentrifuge tubes containing PBS with 10 mM EDTA. Blood indices were analyzed using an automated hematology analyzer (Element HT5; Heska).
For H&E staining, mouse tissues were fixed in 10% formalin (SF98-4; Thermo Fisher Scientific) processed in the University of Florida Molecular Pathology Core. H&E staining was conducted using standard procedures. The sections were hydrated through xylene and a series of ethanol, followed by staining with H&E on slides.

T2 sequence (P22736 whole entry): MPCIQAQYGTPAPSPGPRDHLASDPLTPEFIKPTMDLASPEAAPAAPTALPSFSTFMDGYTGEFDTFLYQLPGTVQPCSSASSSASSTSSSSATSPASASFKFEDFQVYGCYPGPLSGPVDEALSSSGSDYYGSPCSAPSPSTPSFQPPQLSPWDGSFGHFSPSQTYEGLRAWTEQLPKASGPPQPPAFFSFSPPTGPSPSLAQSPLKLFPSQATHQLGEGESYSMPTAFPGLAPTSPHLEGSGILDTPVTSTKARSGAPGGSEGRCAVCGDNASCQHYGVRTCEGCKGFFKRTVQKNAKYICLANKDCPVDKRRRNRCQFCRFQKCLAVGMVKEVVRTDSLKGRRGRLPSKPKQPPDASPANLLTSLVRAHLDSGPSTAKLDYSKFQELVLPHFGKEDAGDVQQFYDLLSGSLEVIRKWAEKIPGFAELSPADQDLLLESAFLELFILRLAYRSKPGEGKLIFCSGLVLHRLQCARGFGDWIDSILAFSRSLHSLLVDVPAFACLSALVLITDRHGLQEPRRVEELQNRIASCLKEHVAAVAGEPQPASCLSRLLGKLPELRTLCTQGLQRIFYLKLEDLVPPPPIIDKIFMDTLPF
T1 sequence (Q92570 whole entry): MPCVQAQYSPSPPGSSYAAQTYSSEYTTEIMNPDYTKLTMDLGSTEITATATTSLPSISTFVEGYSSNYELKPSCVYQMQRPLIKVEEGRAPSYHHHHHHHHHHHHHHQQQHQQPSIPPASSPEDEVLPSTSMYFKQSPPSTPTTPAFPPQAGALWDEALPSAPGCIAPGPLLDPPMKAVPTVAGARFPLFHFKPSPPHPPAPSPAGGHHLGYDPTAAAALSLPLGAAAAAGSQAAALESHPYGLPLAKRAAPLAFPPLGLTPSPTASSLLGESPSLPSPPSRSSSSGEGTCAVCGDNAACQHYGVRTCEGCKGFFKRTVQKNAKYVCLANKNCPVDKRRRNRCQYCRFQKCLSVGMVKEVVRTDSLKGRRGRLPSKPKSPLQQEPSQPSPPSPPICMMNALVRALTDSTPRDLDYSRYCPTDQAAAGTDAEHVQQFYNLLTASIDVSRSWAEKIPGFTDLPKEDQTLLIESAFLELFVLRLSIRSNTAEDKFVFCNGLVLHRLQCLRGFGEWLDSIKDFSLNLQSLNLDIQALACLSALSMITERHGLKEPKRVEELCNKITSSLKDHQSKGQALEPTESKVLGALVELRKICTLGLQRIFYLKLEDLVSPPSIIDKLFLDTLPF
T3 sequence (P40337 whole entry): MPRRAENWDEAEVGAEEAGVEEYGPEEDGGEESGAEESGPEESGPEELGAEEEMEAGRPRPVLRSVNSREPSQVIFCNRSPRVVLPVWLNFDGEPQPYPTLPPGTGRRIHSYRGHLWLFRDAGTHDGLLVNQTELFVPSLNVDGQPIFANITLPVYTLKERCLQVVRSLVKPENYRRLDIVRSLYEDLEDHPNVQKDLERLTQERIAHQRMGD

Turning to `CC1=C(O)C(=O)C=C2C1=CC=C1[C@@]2(C)CC[C@@]2(C)[C@@H]3C[C@](C)(C(=O)NCCOCCOCCOCCOCC(=O)N[C@H](C(=O)N4C[C@H](O)C[C@H]4C(=O)N[C@@H](C)c4ccc(-c5scnc5C)cc4)C(C)(C)C)CC[C@]3(C)CC[C@]12C` [NR-V04], the tumor growth entry in data set [1] was “no tumor inhibitory effect”. In addition, the “NR4A3 protein level (selectivity in the NR4A family)” value in data set [2] is “sparing NR4A2 and NR4A3”. Also, the “NR4A1 protein level, initial screening” value in data set [3] (250 nM, 16 h, immunoblotting and densitometry) is recorded as “highest potency in reducing the protein level of NR4A1”. The “NR4A1 protein level with proteasome inhibitor MG132 pretreatment” value in data set [3] (0.5 μM MG132 10 min, then 500 nM NR-V04 16 h) is listed as “effectively rescued the NR4A1 protein level”. For the same molecule, the “NR4A1 protein level at early time point” value in data set [3] (500 nM, 4 h) was “initial induction of NR4A1 protein”. Moreover, in data set [3] (10 µM VHL 032 10 min, then 500 nM NR-V04 16 h), the “NR4A1 degradation with VHL ligand VHL-032 pretreatment” value was “prevented”. Also, the DC50 in data set [3] (16 h treatment, read-out: 50% degradation concentration (DC50) of NR4A1) was found to be 229 nM. Further, the VHL protein level result in data set [4] is given as “accumulation of VHL protein”. Also, the NR4A1 protein level result in data set [5] (M229 human melanoma cells) and in data set [5] (WM164 human melanoma cells) was “reduced NR4A1 protein level” throughout. Also, the “histology (H&E) of kidney, liver and small intestine” value in data set [6] (male and female mice, day 42) is “did not induce tissue damage”. Moreover, the body weight entry in data set [6] (male and female mice, two doses of 2 mg/kg and two doses of 5 mg/kg over 2 wk, 42 days) is reported as “no significant change in body weight”. For the same molecule, in data set [6] (two doses of 2 mg/kg and two doses of 5 mg/kg, day 0, 7, 14, 42), the “hematological parameters (complete blood counts)” value is “no significant changes in hematological parameters”.
